Laboratory results taken from patent publication US20230126447A1, “OCULAR DRUG DEPOT FOR COMPLEMENT-MEDIATED DISORDERS” (priority 2020, published 2023).
Where two headings read alike, the source gives them in different places.

Key:
[1] = Stability under melanin binding assay conditions; conditions: 1 h
Experimental: […] The melanin solution was stored in the dark at 37° C. until use.
The assay plates containing samples with and without melanin were incubated in the dark with shaking at 37° C. for 1 hour. Following incubation, the samples were centrifuged for 15 minutes at approximately 4000 rpm at 37° C. to sediment the melanin. Sample supernatant (3 μL) was added to 100 μL of acetonitrile containing the internal standard and then diluted with water (197 μL).
% Stability=Mean Total Conc. (μM) after 1 Hour/Mean Total Conc. (μM) at Time Zero×100%

[2] = Ocular tissue distribution and pharmacokinetics, 15 mg/kg BID oral, nonpigmented New Zealand White rabbits (Example 7); type: in vivo
Experimental: For Groups 2 through 4, blood (approximately 2 mL) was collected via a jugular vein using a syringe and needle and was transferred into tubes containing K2EDTA at approximately 12 hours after the a.m. dose on Day 15 from the two animals designated for sacrifice at approximately 240 hours after the a.m. dose on Day 15. For Groups 2 through 4, two animals/group/time point were sacrificed via an overdose of sodium pentobarbital prior to dosing on Day 15 and at approximately 1, 6, 24, 96, 168, and 240 hours after the a.m. dose on Day 15. Blood (approximately 2 mL) was collected from all animals at sacrifice into tubes containing K2EDTA via exsanguination (cardiac puncture). Blood was maintained on wet ice, in chilled cryoracks, or at approximately 5° C. prior to centrifugation to obtain plasma. Centrifugation began within 1 hour of collection (Deviation). Plasma was placed into 96-well tubes with barcode labels. Plasma was maintained on dry ice prior to storage at approximately −70° C. At the time of sacrifice, both eyes were enucleated, and the following tissues were collected. Each eye was flash-frozen in liquid nitrogen for 15 to 20 seconds. The enucleated eye was placed on dry ice or stored at approximately −70° C. for at least 2 hours. Within approximately 3 days, the frozen matrices were collected as right and left eyes for each matrix into the specific tube type listed. At the time of frozen collection, the ocular tissues were rinsed with saline and blotted dry (as appropriate), weighed, and placed on dry ice. All ocular tissues were collected as single samples.

[3] = Choroid-RPE (OU), male NZW rabbits, Group 4, Day 15, 15 mg/kg/dose BID oral (30 mg/kg/day)
[4] = ICB (OU), male NZW rabbits, Group 4, Day 15, 15 mg/kg/dose BID oral (30 mg/kg/day)
[5] = NZW rabbits, Day 15, 15 mg/kg BID, 96 hr
[6] = NZW rabbits, Day 15, 15 mg/kg BID, 168 hr
[7] = NZW rabbits, Day 15, 15 mg/kg BID, 240 hr
[8] = New Zealand White, rabbit, choroid-RPE, oral, NZW rabbits, Day 15, 15 mg/kg BID, read-out: Mean Choroid-RPE Concentration
[9] = New Zealand White, rabbit, iris-ciliary body, oral, NZW rabbits, Day 15, 15 mg/kg BID, read-out: Mean Iris-Ciliary Concentration
[10] = New Zealand White, rabbit, plasma, oral, NZW rabbits, Day 15, 15 mg/kg BID, read-out: Mean Plasma Concentration
[11] = New Zealand White, rabbit, retina, oral, NZW rabbits, Day 15, 15 mg/kg BID, read-out: Mean Retina Concentration
[12] = New Zealand White, rabbit, plasma, male NZW rabbits, Group 4, Day 15, 15 mg/kg/dose BID oral (30 mg/kg/day)
[13] = Retina (OU), male NZW rabbits, Group 4, Day 15, 15 mg/kg/dose BID oral (30 mg/kg/day)
[14] = plasma, male NZW rabbits, Group 4, Day 15, 15 mg/kg/dose BID oral (30 mg/kg/day)

Compound: CC(=O)c1nn(CC(=O)N2C[C@H](F)C[C@H]2C(=O)Nc2cccc(Br)n2)c2ccc(-c3cnc(C)nc3)cc12 [Compound 1, (2S,4R)-1-(2-(3-Acetyl-5-(2-methylpyrimidin-5-yl)-1H-indazol-1-yl)acetyl)-N-(6-bromopyridin-2-yl)-4-fluoropyrrolidine-2-carboxamide]
- Mean Stability [1]: 94.3%
- AUC0-12 [2, 3]: 1440 ng·h/g
- AUC0-240 [2, 3]: 2370 ng·h/g
- AUC(0-24) [2, 3]: 1830 ng·h/g
- AUC(0-t) [2, 3]: 1830 ng·h/g
- Ctrough [2, 3]: 50.7 ng/g
- DN AUC0-12 [2, 3]: 95.9 (h*ng/g)/(mg/kg/dose)
- DN AUC0-24 [2, 3]: 122 (h*ng/g)/(mg/kg/day)
- DN AUC0-240 [2, 3]: 158 (h*ng/g)/(mg/kg/day)
- DN Cmax [2, 3]: 19.8 (ng/g)/(mg/kg/day
- AUC0-12 [2, 4]: 356 ng·h/g
- AUC(0-24) [2, 4]: 453 ng·h/g
- AUC(0-t) [2, 4]: 453 ng·h/g
- Ctrough [2, 4]: 14.6 ng/g
- DN AUC0-12 [2, 4]: 23.7 (h*ng/g)/(mg/kg/dose)
- DN AUC0-24 [2, 4]: 30.2 (h*ng/g)/(mg/kg/day)
- DN Cmax [2, 4]: 4.33 (ng/g)/(mg/kg/day)
- Mean Choroid-RPE concentration [2, 5]: BLQ
- Mean plasma concentration [2, 5]: BLQ
- Mean retina concentration [2, 5]: BLQ
- Mean Choroid-RPE concentration [2, 6]: BLQ
- Mean plasma concentration [2, 6]: BLQ
- Mean retina concentration [2, 6]: BLQ
- Mean Choroid-RPE concentration [2, 7]: BLQ
- Mean plasma concentration [2, 7]: BLQ
- Mean retina concentration [2, 7]: BLQ
- concentration at 0 h [2, 8]: 40.3 ng/g
- concentration at 1 h [2, 8]: 296 ng/g
- concentration at 6 h [2, 8]: 68.6 ng/g
- concentration at 24 h [2, 8]: 14.9 ng/g
- Tmax ([2]; New Zealand White, rabbit, choroid-retinal pigment epithelium (choroid-RPE), Choroid-RPE (OU), male NZW rabbits, Group 4, Day 15, 15 mg/kg/dose BID oral (30 mg/kg/day)): 1 h
- Tmax ([2]; New Zealand White, rabbit, iris-ciliary body (ICB), ICB (OU), male NZW rabbits, Group 4, Day 15, 15 mg/kg/dose BID oral (30 mg/kg/day)): 1 h
- Cmax ([2]; New Zealand White, rabbit, iris-ciliary body (ICB), ICB (OU), male NZW rabbits, Group 4, Day 15, 15 mg/kg/dose BID oral (30 mg/kg/day), read-out: Cmax): 64.9 ng/g
- concentration at 1 h [2, 9]: 64.9 ng/g
- concentration at 6 h [2, 9]: 21.2 ng/g
- concentration at 24 h [2, 9]: 1.6 ng/g
- concentration at 0 h [2, 10]: 53.8 ng/mL
- concentration at 1 h [2, 10]: 558 ng/mL
- concentration at 6 h [2, 10]: 179 ng/mL
- concentration at 12 h ([2]; New Zealand White, rabbit, plasma, oral, NZW rabbits, Day 15, 15 mg/kg BID, 12 hr): 82.2 ng/mL
- concentration at 24 h [2, 10]: 11.7 ng/mL
- concentration at 0 h [2, 11]: 36.3 ng/g
- concentration at 1 h [2, 11]: 248 ng/g
- concentration at 6 h [2, 11]: 86.1 ng/g
- concentration at 24 h [2, 11]: 9.18 ng/g
- Tmax ([2]; New Zealand White, rabbit, Retina (OU), male NZW rabbits, Group 4, Day 15, 15 mg/kg/dose BID oral (30 mg/kg/day)): 1 h
- Tmax [2, 12]: 1 h
- half-life [2, 12]: 4.53 h
- AUC0-12 [2, 13]: 1420 ng·h/g
- AUC0-240 [2, 13]: 2160 ng·h/g
- AUC(0-24) [2, 13]: 1830 ng·h/g
- AUC(0-t) [2, 13]: 1830 ng·h/g
- Ctrough [2, 13]: 60.4 ng/g
- DN AUC0-12 [2, 13]: 94.4 (h*ng/g)/(mg/kg/dose)
- DN AUC0-24 [2, 13]: 122 (h*ng/g)/(mg/kg/day)
- DN AUC0-240 [2, 13]: 144 (h*ng/g)/(mg/kg/day)
- DN Cmax [2, 13]: 16.5 (ng/g)/(mg/kg/day)
- AUC(0-t) ([2]; male, New Zealand White, rabbit, plasma, po, 15 mg/kg, plasma, male NZW rabbits, Group 4, Day 15, 15 mg/kg/dose BID oral (30 mg/kg/day), read-out: AUC0-12): 2930 ng·h/mL
- AUC(0-t) ([2]; male, New Zealand White, rabbit, plasma, po, 15 mg/kg, plasma, male NZW rabbits, Group 4, Day 15, 15 mg/kg/dose BID oral (30 mg/kg/day), read-out: AUC0-240): 3910 ng·h/mL
- AUC(0-t) ([2]; male, New Zealand White, rabbit, plasma, po, 15 mg/kg, plasma, male NZW rabbits, Group 4, Day 15, 15 mg/kg/dose BID oral (30 mg/kg/day), read-out: AUC0-t): 3490 ng·h/mL
- Cmax [2, 14]: 558 ng/mL
- Ctrough [2, 14]: 82.2 ng/mL
- DN AUC0-12 [2, 14]: 195 (h*ng/mL)/(mg/kg/dose)
- DN AUC0-24 [2, 14]: 233 (h*ng/mL)/(mg/kg/day)
- DN AUC0-240 [2, 14]: 261 (h*ng/mL)/(mg/kg/day)
- DN Cmax [2, 14]: 37.2 (ng/mL)/(mg/kg/day)
